# Source: ChEMBL document CHEMBL1909294, “Translating clinical findings into knowledge in drug safety evaluation--drug induced liver injury prediction system (DILIps)” (PLoS Comput Biol, 2011)
# Tests used:
# Hepatotoxicity [1] = system: Hepatotoxicity;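 on HepSE Combined Scores: combined hepatic side effect score as listed in the training data of the Drug Induced Liver Injury Prediction System (DILIps)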;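 on HepSE cholecystitis: Cholecystitis-related hepatic side effect score drawn from the DILIps (drug-induced liver injury prediction) training data set; call rule not given here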;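 on HepSE cirrhosis: cirrhosis hepatic side effect score taken from the DILIps (drug-induced liver injury prediction) training set; call rule not given here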;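 on HepSE hepatic necrosis: score of hepatic side effects for hepatic necrosis, drawn from the training data of DILIps, a prediction system for drug-induced liver injury; call rule not given here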;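 on HepSE liver fatty: hepatic side effect score for fatty liver, taken from the DILIps training set for predicting drug-induced liver injury; call rule not given here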;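 on HepSE liver function tests abnormal: hepatic side effect score taken from the DILIps (drug-induced liver injury prediction system) training data, here covering abnormal liver function test findings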
# Hepatotoxicity [2] = system: Hepatotoxicity; remark: listed apart in the source;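 on HepSE Combined Scores: combined hepatic side effect score as listed in the training data of the Drug Induced Liver Injury Prediction System (DILIps)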;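 on HepSE cholecystitis: Cholecystitis-related hepatic side effect score drawn from the DILIps (drug-induced liver injury prediction) training data set; call rule not given here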;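 on HepSE cirrhosis: cirrhosis hepatic side effect score taken from the DILIps (drug-induced liver injury prediction) training set; call rule not given here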;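 on HepSE hepatic necrosis: score of hepatic side effects for hepatic necrosis, drawn from the training data of DILIps, a prediction system for drug-induced liver injury; call rule not given here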;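 on HepSE liver fatty: hepatic side effect score for fatty liver, taken from the DILIps training set for predicting drug-induced liver injury; call rule not given here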;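 on HepSE liver function tests abnormal: hepatic side effect score taken from the DILIps (drug-induced liver injury prediction system) training data, here covering abnormal liver function test findings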
# Hepatotoxicity [3] = system: Hepatotoxicity; remark: listed apart in the source;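 on HepSE Combined Scores: combined hepatic side effect score as listed in the training data of the Drug Induced Liver Injury Prediction System (DILIps)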;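 on HepSE cholecystitis: Cholecystitis-related hepatic side effect score drawn from the DILIps (drug-induced liver injury prediction) training data set; call rule not given here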;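 on HepSE cirrhosis: cirrhosis hepatic side effect score taken from the DILIps (drug-induced liver injury prediction) training set; call rule not given here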;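 on HepSE hepatic necrosis: score of hepatic side effects for hepatic necrosis, drawn from the training data of DILIps, a prediction system for drug-induced liver injury; call rule not given here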;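 on HepSE liver fatty: hepatic side effect score for fatty liver, taken from the DILIps training set for predicting drug-induced liver injury; call rule not given here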;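 on HepSE liver function tests abnormal: hepatic side effect score taken from the DILIps (drug-induced liver injury prediction system) training data, here covering abnormal liver function test findings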
# Hepatotoxicity [4] = system: Hepatotoxicity; remark: listed apart in the source;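 on HepSE cholecystitis: Cholecystitis-related hepatic side effect score drawn from the DILIps (drug-induced liver injury prediction) training data set; call rule not given here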;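 on HepSE cirrhosis: cirrhosis hepatic side effect score taken from the DILIps (drug-induced liver injury prediction) training set; call rule not given here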;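 on HepSE hepatic necrosis: score of hepatic side effects for hepatic necrosis, drawn from the training data of DILIps, a prediction system for drug-induced liver injury; call rule not given here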;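 on HepSE liver fatty: hepatic side effect score for fatty liver, taken from the DILIps training set for predicting drug-induced liver injury; call rule not given here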;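 on HepSE liver function tests abnormal: hepatic side effect score taken from the DILIps (drug-induced liver injury prediction system) training data, here covering abnormal liver function test findings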
# Hepatotoxicity [5] = system: Hepatotoxicity; remark: listed apart in the source
# Hepatotoxicity [6] = system: Hepatotoxicity; remark: listed apart in the source
# Hepatotoxicity [7] = system: Hepatotoxicity; remark: listed apart in the source
# Hepatotoxicity [8] = system: Hepatotoxicity; remark: listed apart in the source
# Hepatotoxicity [9] = system: Hepatotoxicity; remark: listed apart in the source
# Hepatotoxicity [10] = system: Hepatotoxicity; remark: listed apart in the source
# Hepatotoxicity [11] = system: Hepatotoxicity; remark: listed apart in the source
# Hepatotoxicity [12] = system: Hepatotoxicity; remark: listed apart in the source
# Hepatotoxicity [13] = system: Hepatotoxicity; remark: listed apart in the source
# Hepatotoxicity [14] = system: Hepatotoxicity; remark: listed apart in the source
Structure (SMILES),HepSE_cholecystitis (Hepatotoxicity [1]),HepSE_cirrhosis (Hepatotoxicity [2]),HepSE_liver fatty (Hepatotoxicity [3]),HepSE_liver function tests abnormal (Hepatotoxicity [4]),HepSE_hepatic necrosis (Hepatotoxicity [5]),HepSE_Combined Scores (Hepatotoxicity [6]),HepSE_elevated liver function tests (Hepatotoxicity [7]),HepSE_hepatitis (Hepatotoxicity [8]),HepSE_liver disease (Hepatotoxicity [9]),HepSE_hepatomegaly (Hepatotoxicity [10]),HepSE_cholelithiasis (Hepatotoxicity [11]),HepSE_jaundice (Hepatotoxicity [12]),HepSE_bilirubinemia (Hepatotoxicity [13]),HepSE_hepatic failure (Hepatotoxicity [14]),further results
CC(C)(C)NC[C@H](O)COc1nsnc1N1CCOCC1 [TIMOLOL],0,0,0,0,0,1,0,0,0,1,0,0,0,0,–
CCS(=O)(=O)CCn1c([N+](=O)[O-])cnc1C [TINIDAZOLE],0,0,0,0,0,0,0,0,0,0,0,0,0,0,–
C[N+]1(C)[C@@H]2C[C@@H](OC(=O)C(O)(c3cccs3)c3cccs3)C[C@H]1[C@@H]1O[C@@H]12 [TIOTROPIUM],0,0,0,0,0,0,0,0,0,0,0,0,0,0,–
CCCCS(=O)(=O)N[C@@H](Cc1ccc(OCCCCC2CCNCC2)cc1)C(=O)O [TIROFIBAN],–,–,–,–,–,–,–,–,–,–,–,–,–,–,HepSE_cholecystitis (Hepatotoxicity [1]; Liver): 0; HepSE_cirrhosis (Hepatotoxicity [2]; Liver): 0; HepSE_liver fatty (Hepatotoxicity [3]; Liver): 0; HepSE_liver function tests abnormal (Hepatotoxicity [4]; Liver): 0; HepSE_hepatic necrosis (Hepatotoxicity [5]; Liver): 0; HepSE_Combined Scores (Hepatotoxicity [6]; Liver): 0; HepSE_elevated liver function tests (Hepatotoxicity [7]; Liver): 0; HepSE_hepatitis (Hepatotoxicity [8]; Liver): 0; HepSE_liver disease (Hepatotoxicity [9]; Liver): 0; HepSE_hepatomegaly (Hepatotoxicity [10]; Liver): 0; HepSE_cholelithiasis (Hepatotoxicity [11]; Liver): 0; HepSE_jaundice (Hepatotoxicity [12]; Liver): 0; HepSE_bilirubinemia (Hepatotoxicity [13]; Liver): 0; HepSE_hepatic failure (Hepatotoxicity [14]; Liver): 0
Clc1ccc2nsnc2c1NC1=NCCN1 [TIZANIDINE],–,–,–,–,–,–,–,–,–,–,–,–,–,–,HepSE_cholecystitis (Hepatotoxicity [1]; Liver): 0; HepSE_cirrhosis (Hepatotoxicity [2]; Liver): 1; HepSE_liver fatty (Hepatotoxicity [3]; Liver): 0; HepSE_liver function tests abnormal (Hepatotoxicity [4]; Liver): 1; HepSE_hepatic necrosis (Hepatotoxicity [5]; Liver): 1; HepSE_Combined Scores (Hepatotoxicity [6]; Liver): 8; HepSE_elevated liver function tests (Hepatotoxicity [7]; Liver): 0; HepSE_hepatitis (Hepatotoxicity [8]; Liver): 1; HepSE_liver disease (Hepatotoxicity [9]; Liver): 1; HepSE_hepatomegaly (Hepatotoxicity [10]; Liver): 0; HepSE_cholelithiasis (Hepatotoxicity [11]; Liver): 1; HepSE_jaundice (Hepatotoxicity [12]; Liver): 1; HepSE_bilirubinemia (Hepatotoxicity [13]; Liver): 0; HepSE_hepatic failure (Hepatotoxicity [14]; Liver): 1
NC[C@H]1O[C@H](O[C@H]2[C@H](O)[C@@H](O[C@H]3O[C@H](CO)[C@@H](O)[C@H](N)[C@H]3O)[C@H](N)C[C@@H]2N)[C@H](N)C[C@@H]1O [TOBRAMYCIN],0,0,0,0,0,0,0,0,0,0,0,0,0,0,–
Cc1ccc(S(=O)(=O)NC(=O)NN2CCCCCC2)cc1 [TOLAZAMIDE],0,0,0,0,0,1,0,0,0,0,0,1,0,0,–
c1ccc(CC2=NCCN2)cc1 [TOLAZOLINE],0,0,0,0,0,1,0,1,0,0,0,0,0,0,–
Cc1ccc(C(=O)c2cc(O)c(O)c([N+](=O)[O-])c2)cc1 [TOLCAPONE],–,–,–,–,–,–,–,–,–,–,–,–,–,–,HepSE_cholecystitis (Hepatotoxicity [1]; Liver): 1; HepSE_cirrhosis (Hepatotoxicity [2]; Liver): 0; HepSE_liver fatty (Hepatotoxicity [3]; Liver): 0; HepSE_liver function tests abnormal (Hepatotoxicity [4]; Liver): 0; HepSE_hepatic necrosis (Hepatotoxicity [5]; Liver): 0; HepSE_Combined Scores (Hepatotoxicity [6]; Liver): 2; HepSE_elevated liver function tests (Hepatotoxicity [7]; Liver): 0; HepSE_hepatitis (Hepatotoxicity [8]; Liver): 0; HepSE_liver disease (Hepatotoxicity [9]; Liver): 0; HepSE_hepatomegaly (Hepatotoxicity [10]; Liver): 0; HepSE_cholelithiasis (Hepatotoxicity [11]; Liver): 1; HepSE_jaundice (Hepatotoxicity [12]; Liver): 0; HepSE_bilirubinemia (Hepatotoxicity [13]; Liver): 0; HepSE_hepatic failure (Hepatotoxicity [14]; Liver): 0
Cc1ccc(C(=O)c2ccc(CC(=O)O)n2C)cc1 [TOLMETIN],0,0,0,0,0,1,0,1,0,0,0,0,0,0,–
Cc1ccc(O)c([C@H](CCN(C(C)C)C(C)C)c2ccccc2)c1 [TOLTERODINE],0,0,0,0,0,0,0,0,0,0,0,0,0,0,–
CC1(C)O[C@@H]2[C@@H](CO[C@@]3(COS(N)(=O)=O)OC(C)(C)O[C@@H]23)O1 [TOPIRAMATE],0,0,0,0,0,2,0,1,0,0,0,0,0,1,–
CC[C@@]1(O)C(=O)OCc2c1cc1n(c2=O)Cc2cc3c(CN(C)C)c(O)ccc3nc2-1 [TOPOTECAN],0,0,0,0,0,1,0,0,0,0,0,0,1,0,–
CN(C)CCOc1ccc(/C(=C(/CCCl)c2ccccc2)c2ccccc2)cc1 [TOREMIFENE],0,0,0,1,0,2,0,0,0,0,0,1,0,0,–
Cc1cccc(Nc2ccncc2S(=O)(=O)NC(=O)NC(C)C)c1 [TORSEMIDE],0,1,0,0,0,2,0,0,0,0,0,0,0,1,–
COc1cccc(C2(O)CCCCC2CN(C)C)c1 (configuration not stated) [TRAMADOL],1,0,0,1,0,5,0,1,0,0,1,0,0,1,–
CCOC(=O)[C@H](CCc1ccccc1)N[C@@H](C)C(=O)N1[C@H](C(=O)O)C[C@H]2CCCC[C@@H]21 [TRANDOLAPRIL],0,0,0,1,0,2,0,1,0,0,0,0,0,0,–
N[C@@H]1C[C@H]1c1ccccc1.N[C@H]1C[C@@H]1c1ccccc1 [TRANYLCYPROMINE],–,–,–,–,–,–,–,–,–,–,–,–,–,–,HepSE_cholecystitis (Hepatotoxicity [1]; Liver): 0; HepSE_cirrhosis (Hepatotoxicity [2]; Liver): 0; HepSE_liver fatty (Hepatotoxicity [3]; Liver): 0; HepSE_liver function tests abnormal (Hepatotoxicity [4]; Liver): 0; HepSE_hepatic necrosis (Hepatotoxicity [5]; Liver): 0; HepSE_Combined Scores (Hepatotoxicity [6]; Liver): 1; HepSE_elevated liver function tests (Hepatotoxicity [7]; Liver): 0; HepSE_hepatitis (Hepatotoxicity [8]; Liver): 1; HepSE_liver disease (Hepatotoxicity [9]; Liver): 0; HepSE_hepatomegaly (Hepatotoxicity [10]; Liver): 0; HepSE_cholelithiasis (Hepatotoxicity [11]; Liver): 0; HepSE_jaundice (Hepatotoxicity [12]; Liver): 0; HepSE_bilirubinemia (Hepatotoxicity [13]; Liver): 0; HepSE_hepatic failure (Hepatotoxicity [14]; Liver): 0
